In ChEMBL document CHEMBL1123666, “Conformationally defined adrenergic agents. 4. 1-(aminomethyl)phthalans: synthesis and pharmacological consequences of the phthalan ring oxygen atom” (J Med Chem, 1987):

What was measured:
[1] = molecular target: T1, Adrenergic receptor alpha-2 (Homo sapiens, UniProt P08913+P18825+P18089); assay: Binding affinity towards alpha 2 adrenergic receptor; assay type: protein assay, Canis lupus familiaris
T1 sequence (P08913 whole entry): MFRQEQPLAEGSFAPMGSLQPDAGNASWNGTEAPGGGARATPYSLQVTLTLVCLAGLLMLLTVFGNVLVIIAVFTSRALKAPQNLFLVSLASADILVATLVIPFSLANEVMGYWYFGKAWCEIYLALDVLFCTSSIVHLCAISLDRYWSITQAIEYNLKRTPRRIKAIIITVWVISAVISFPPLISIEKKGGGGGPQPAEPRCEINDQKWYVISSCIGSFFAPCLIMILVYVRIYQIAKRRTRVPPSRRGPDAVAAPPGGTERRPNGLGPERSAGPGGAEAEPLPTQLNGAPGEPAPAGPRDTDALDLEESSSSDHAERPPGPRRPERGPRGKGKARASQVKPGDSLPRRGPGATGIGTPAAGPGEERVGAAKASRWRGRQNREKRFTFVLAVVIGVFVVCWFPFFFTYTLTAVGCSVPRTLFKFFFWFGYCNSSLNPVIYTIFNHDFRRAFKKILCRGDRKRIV
T1 sequence (P18825 whole entry): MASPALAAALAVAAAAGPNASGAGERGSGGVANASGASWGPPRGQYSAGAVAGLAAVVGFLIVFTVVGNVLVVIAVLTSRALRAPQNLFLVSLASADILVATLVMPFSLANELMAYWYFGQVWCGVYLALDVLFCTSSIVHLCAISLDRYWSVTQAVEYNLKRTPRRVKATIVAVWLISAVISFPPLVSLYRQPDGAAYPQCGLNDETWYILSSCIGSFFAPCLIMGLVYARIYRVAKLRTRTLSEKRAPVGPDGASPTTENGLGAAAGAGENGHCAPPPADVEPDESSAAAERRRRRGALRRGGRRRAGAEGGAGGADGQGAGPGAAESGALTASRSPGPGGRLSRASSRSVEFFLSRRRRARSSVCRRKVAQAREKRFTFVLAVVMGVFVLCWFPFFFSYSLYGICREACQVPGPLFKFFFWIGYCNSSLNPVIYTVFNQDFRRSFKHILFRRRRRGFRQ
T1 sequence (P18089 whole entry): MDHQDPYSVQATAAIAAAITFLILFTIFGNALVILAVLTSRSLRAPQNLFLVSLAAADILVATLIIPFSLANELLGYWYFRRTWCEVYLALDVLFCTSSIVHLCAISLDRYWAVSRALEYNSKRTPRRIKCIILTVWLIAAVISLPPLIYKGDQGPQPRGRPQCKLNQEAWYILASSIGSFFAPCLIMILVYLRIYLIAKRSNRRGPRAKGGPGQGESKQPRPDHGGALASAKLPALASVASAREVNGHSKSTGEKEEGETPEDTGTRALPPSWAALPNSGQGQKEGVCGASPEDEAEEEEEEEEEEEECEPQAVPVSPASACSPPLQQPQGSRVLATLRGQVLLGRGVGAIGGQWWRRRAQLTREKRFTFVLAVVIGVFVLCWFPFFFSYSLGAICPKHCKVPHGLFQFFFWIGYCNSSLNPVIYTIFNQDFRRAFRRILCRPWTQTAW

[2] = molecular target: T2, Adrenergic receptor alpha-1 (Homo sapiens, UniProt P35348+P25100+P35368); assay: Binding affinity towards alpha 1 adrenergic receptor; assay type: protein assay, Oryctolagus cuniculus
T2 sequence (P35348 whole entry): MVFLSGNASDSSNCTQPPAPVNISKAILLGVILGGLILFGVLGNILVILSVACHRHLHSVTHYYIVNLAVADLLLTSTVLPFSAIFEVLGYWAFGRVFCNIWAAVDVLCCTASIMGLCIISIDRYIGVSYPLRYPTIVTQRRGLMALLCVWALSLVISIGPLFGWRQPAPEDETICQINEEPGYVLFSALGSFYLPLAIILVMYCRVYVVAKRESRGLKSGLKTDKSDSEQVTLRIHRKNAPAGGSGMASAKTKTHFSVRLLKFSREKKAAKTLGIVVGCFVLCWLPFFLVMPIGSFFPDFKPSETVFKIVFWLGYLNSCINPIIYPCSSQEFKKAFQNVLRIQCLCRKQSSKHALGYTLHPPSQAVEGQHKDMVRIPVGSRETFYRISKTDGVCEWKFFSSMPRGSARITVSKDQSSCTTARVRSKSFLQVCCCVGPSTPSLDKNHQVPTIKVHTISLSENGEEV
T2 sequence (P25100 whole entry): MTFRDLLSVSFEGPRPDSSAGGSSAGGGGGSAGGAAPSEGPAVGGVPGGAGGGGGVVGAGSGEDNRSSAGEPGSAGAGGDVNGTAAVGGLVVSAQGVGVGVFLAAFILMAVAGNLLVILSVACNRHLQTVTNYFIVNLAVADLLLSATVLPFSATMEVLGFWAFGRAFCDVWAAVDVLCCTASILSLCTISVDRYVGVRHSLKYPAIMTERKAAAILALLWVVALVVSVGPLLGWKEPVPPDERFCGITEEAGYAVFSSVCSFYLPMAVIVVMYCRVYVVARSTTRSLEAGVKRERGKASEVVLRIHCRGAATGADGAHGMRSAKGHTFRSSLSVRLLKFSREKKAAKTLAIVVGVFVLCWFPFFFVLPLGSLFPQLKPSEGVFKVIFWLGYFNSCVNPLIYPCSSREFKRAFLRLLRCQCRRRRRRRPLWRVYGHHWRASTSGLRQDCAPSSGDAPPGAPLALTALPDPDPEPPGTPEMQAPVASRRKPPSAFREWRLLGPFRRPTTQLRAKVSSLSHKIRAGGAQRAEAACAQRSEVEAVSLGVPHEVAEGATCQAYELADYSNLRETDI
T2 sequence (P35368 whole entry): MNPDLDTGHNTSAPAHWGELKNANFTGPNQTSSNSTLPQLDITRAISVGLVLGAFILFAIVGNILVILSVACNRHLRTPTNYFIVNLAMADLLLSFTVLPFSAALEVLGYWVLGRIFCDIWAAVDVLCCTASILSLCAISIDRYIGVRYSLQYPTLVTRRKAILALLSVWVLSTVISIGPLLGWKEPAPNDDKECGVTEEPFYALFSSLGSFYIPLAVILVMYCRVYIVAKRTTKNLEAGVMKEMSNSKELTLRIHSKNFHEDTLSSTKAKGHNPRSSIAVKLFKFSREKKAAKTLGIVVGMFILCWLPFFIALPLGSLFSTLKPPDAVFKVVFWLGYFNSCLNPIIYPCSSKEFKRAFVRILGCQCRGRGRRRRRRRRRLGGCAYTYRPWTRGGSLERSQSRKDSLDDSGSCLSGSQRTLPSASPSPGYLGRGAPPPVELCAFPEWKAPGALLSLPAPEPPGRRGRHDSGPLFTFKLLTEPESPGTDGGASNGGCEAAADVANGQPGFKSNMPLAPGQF

[3] = molecular target: T3, Adrenergic receptor alpha (Homo sapiens) (UniProt P35348+P08913+P18825+P25100+P35368+P18089); assay: Ratio of Ki of alpha-1 to Ki of alpha-2 adrenoceptor; assay type: protein assay
[4] = molecular target: Adrenergic receptor alpha-2 (Homo sapiens) (UniProt P08913+P18825+P18089); assay: In vitro alpha 2 adrenergic activity uin phenozybenzamine pretreated dog saphenous vein expressed as percent maximum response of the tissue to norepinephrine.; assay type: functional, tissue-based; settings: Canis lupus familiaris
[5] = molecular target: Adrenergic receptor alpha-1 (Homo sapiens) (UniProt P35348+P25100+P35368); assay: In vitro alpha 1 adrenergic activity using isolated rabbit aorta expressed as percent maximum response of the tissue to norepinephrine.; assay type: functional, tissue-based; settings: Oryctolagus cuniculus
[6] = molecular target: T3, Adrenergic receptor alpha (Homo sapiens); assay: In vitro alpha-2 selectivity which is the measure of Ratio of Ki of alpha-1 adrenoceptor to Ki of alpha-2 adrenoceptor; assay type: protein assay
[7] = Ratio of ED50 of NE to ED50 of CPD from PBZ-pretreated dog alpha-2 adrenoceptor
[8] = Ratio of ED50 of NE to ED50 of CPD from Rabbit aorta alpha-1 adrenoceptor; assay type: tissue-based

| SMILES | Ki [1] [µM] | Ki [2] [µM] | Ratio [3] | Emax [4] | Emax [5] | Ratio [6] | Ratio [7] | Ratio [8] |
| --- | --- | --- | --- | --- | --- | --- | --- | --- |
| CCCN(CCC)CC1OCc2c1ccc(O)c2O (stereo not given) | 0.67 | 10.3 | 15 |  |  |  |  |  |
| NCC1OCc2c1ccc(O)c2O (stereo not given) | 0.077 | 9.8 | 127 | 90 | 107 | 36.3 | 1.45 | 0.04 |
| NCC1OCc2cc(O)c(O)cc21 (stereo not given) | 13 | 99 | 9.7 |  |  |  |  |  |
| CCCN(CCC)CC1CCc2c1ccc(O)c2O (stereo not given) | 0.47 | 7.4 | 16 |  |  |  |  |  |
| CN(C)CC1OCc2c1ccc(O)c2O (stereo not given) | 0.0107 | 1.16 | 109 | 107 | 114 | 4 | 4 | 1 |
| NCC1CCc2cc(O)c(O)cc21 (stereo not given) | 0.52 | 26 | 50 |  |  |  |  |  |
| NCC1CCc2c1ccc(O)c2O (stereo not given) | 0.015 | 2.25 | 145 | 91 | 102 | 209 | 3.55 | 0.017 |
| CNCC1CCc2c1ccc(O)c2O (stereo not given) | 0.007 | 2 | 323 | 81 | 109 | 110 | 29.6 | 0.27 |
| CNCC1OCc2c1ccc(O)c2O (stereo not given) | 0.018 | 1.97 | 112 | 94 | 126 | 5.3 | 1.69 | 0.32 |
| CN(C)CC1CCc2c1ccc(O)c2O (stereo not given) | 0.025 | 6.9 | 276 | 101 | 105 | 7.6 | 2.05 | 0.27 |
